Assays:
[1] = target: T1, LdUfsp (recombinant Ufsp, rLdUfsp) (Leishmania donovani, UniProt E9BRI1); assay: FRET cleavage assay with YFP-Ufm1-ECFP; type: biochemical; settings: 0.1, 1, 10 µg/ml; 250 nM substrate; pH 7.5, 37 °C, 60 min
T1 construct: gene LdCL_340047700; partial ORF 427-1518 bp (about codons 143-506) in pEXP5-CT-Topo, E. coli BL21-pLysS, native purification; 43 and 39 kDa bands; L. infantum homolog is LinJ.34.3830

[2] = target: T1, LdUfsp (recombinant Ufsp, rLdUfsp); assay: biolayer interferometry (Octet, streptavidin sensor); type: binding; settings: biotinylated protein immobilised

T1 sequence (E9BRI1 entry or part of it): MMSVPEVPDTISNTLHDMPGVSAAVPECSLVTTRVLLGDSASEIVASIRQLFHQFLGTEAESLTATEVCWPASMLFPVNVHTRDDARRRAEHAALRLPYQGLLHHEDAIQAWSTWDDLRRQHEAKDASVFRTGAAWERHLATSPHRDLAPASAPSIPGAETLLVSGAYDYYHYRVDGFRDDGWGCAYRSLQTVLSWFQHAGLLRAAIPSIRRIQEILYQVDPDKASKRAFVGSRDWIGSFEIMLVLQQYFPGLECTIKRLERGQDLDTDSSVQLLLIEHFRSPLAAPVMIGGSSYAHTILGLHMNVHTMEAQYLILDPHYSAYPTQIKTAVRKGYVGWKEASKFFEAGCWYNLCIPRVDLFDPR

For `C[C@@H]1[C@H](O)[C@@H](C)/C=C/C=C/C=C/C=C/C=C/C=C/C=C/[C@H](O[C@@H]2O[C@H](C)[C@@H](O)[C@H](N)[C@@H]2O)C[C@@H]2O[C@](O)(C[C@@H](O)C[C@@H](O)[C@H](O)CC[C@@H](O)C[C@@H](O)CC(=O)O[C@H]1C)C[C@H](O)[C@H]2C(=O)O` [Amphotericin B], the “% Ufm1 processing activity (Δ530, % of 20 mM N-ethyl maleimide)” value [1] was “Amphotericin B showed inhibitory effects on the Ufm1 processing activity” and the “biolayer interferometry (Octet, streptavidin sensor)” value [2] was “Results showed that Amphotericin B can bind to the biotinylated Ufsp protein”.
